Results on six compounds are retold here after patent US12662489B2 (Sitryx Therapeutics Limited, priority 2023, dated 2026).

A value given as a limit tells only on which side of the number the result lay.

The target in experiment [1] is T1, MTHFD1 recombinant human enzyme (Homo sapiens, UniProt P11586).
T1 sequence (P11586 2-291 limits assumed): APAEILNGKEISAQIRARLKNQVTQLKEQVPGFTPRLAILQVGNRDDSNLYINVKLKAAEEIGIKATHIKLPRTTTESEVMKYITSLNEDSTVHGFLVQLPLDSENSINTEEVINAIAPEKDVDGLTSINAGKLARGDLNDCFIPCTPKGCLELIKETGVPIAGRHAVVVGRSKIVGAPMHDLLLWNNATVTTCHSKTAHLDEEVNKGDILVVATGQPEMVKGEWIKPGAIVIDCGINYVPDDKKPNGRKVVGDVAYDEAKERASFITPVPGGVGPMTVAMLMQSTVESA
Nature of the experiment: MTHFD1 inhibition assay (NAD(P)H-Glo luminescence). The conditions noted are these: MTHFD1 IC50, recombinant human enzyme 200 nM, NADP, band.

The target of experiment [2] is T2, MTHFD2 recombinant human enzyme (Homo sapiens, UniProt P13995).
T2 sequence (P13995 36-350): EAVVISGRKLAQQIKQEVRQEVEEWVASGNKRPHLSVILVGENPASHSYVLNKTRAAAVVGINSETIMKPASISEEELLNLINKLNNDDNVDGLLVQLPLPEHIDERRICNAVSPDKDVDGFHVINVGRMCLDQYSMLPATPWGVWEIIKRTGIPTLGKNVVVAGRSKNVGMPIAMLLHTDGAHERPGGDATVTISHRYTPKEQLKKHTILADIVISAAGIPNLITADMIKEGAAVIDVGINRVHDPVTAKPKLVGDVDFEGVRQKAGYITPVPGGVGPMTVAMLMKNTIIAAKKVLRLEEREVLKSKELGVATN
The experiment in a line: MTHFD2 inhibition assay (NAD(P)H-Glo luminescence). The following applies: for MTHFD1/MTHFD2 IC50 ratio: selectivity of MTHFD2 inhibition over MTHFD1, band.

Another experiment has as its system human CD4+ T cells. The experiment in a line: Human CD4+ T-cell proliferation assay (CFSE, CD3/28 beads). The conditions noted are these: read-out: Proliferation IC50.

Turning to `COC[C@H]1CN(c2cc(C)c3c4c(c(=O)oc3c2C)CN(C(=O)c2ccc(C(=O)NS(=O)(=O)N3CCCC3)cc2)CC4)CCN1C` [Example 195, (R)-4-(8-(3-(methoxymethyl)-4-methylpiperazin-1-yl)-7,10-dimethyl-5-oxo-1,3,4,5-tetrahydro-2H-chromeno[3,4-c]pyridine-3-carbonyl)-N-(pyrrolidin-1-ylsulfonyl)benzamide], the results for the IC50 (in experiment [1]; in experiment [2]; with human CD4+ T cells) were 1000 to 5000 nM, 10 to 100 nM and 1000 to 5000 nM, respectively. The “MTHFD1/MTHFD2 IC50 ratio” value in experiment [2] is “J (>30)”.
For the compound `COC[C@H]1CN(c2cc(C)c3c4c(c(=O)oc3c2C)CN(C(=O)c2cc(N)c(C(=O)NS(=O)(=O)N3CCCC3)cc2F)CC4)CCN1C` [Example 196, (R)-2-amino-5-fluoro-4-(8-(3-(methoxymethyl)-4-methylpiperazin-1-yl)-7,10-dimethyl-5-oxo-1,3,4,5-tetrahydro-2H-chromeno[3,4-c]pyridine-3-carbonyl)-N-(pyrrolidin-1-ylsulfonyl)benzamide], the IC50 in experiment [1] is 1000 to 5000 nM; in experiment [2], 10 to 100 nM; with human CD4+ T cells it was over 5000 nM. Besides, the “MTHFD1/MTHFD2 IC50 ratio” value in experiment [2] was “J (>30)”.
`COC[C@H]1CN(c2cc(C)c3c4c(c(=O)oc3c2C)CN(C(=O)c2ccc(C(=O)NS(=O)(=O)N(C)C3CCCC3)cc2F)CC4)CCN1C` [Example 199, (R)-N-(N-cyclopentyl-N-methylsulfamoyl)-3-fluoro-4-(8-(3-(methoxymethyl)-4-methylpiperazin-1-yl)-7,10-dimethyl-5-oxo-1,3,4,5-tetrahydro-2H-chromeno[3,4-c]pyridine-3-carbonyl)benzamide]: the IC50 was 1000 to 5000 nM in experiment [1], 100 to 1000 nM in experiment [2] and 100 to 1000 nM with human CD4+ T cells. Further, the “MTHFD1/MTHFD2 IC50 ratio” value in experiment [2] is given as “H (>9.0 to 30)”.
Consider `CNc1cc(C(=O)N2CCc3c(c(=O)oc4c(C)c(N5CCN(C)[C@@H](COC)C5)cc(C)c34)C2)c(F)cc1C(=O)NS(=O)(=O)N1CCCC1` [Example 201, (R)-5-fluoro-4-(8-(3-(methoxymethyl)-4-methylpiperazin-1-yl)-7,10-dimethyl-5-oxo-1,3,4,5-tetrahydro-2H-chromeno[3,4-c]pyridine-3-carbonyl)-2-(methylamino)-N-(pyrrolidin-1-ylsulfonyl)benzamide], for which the IC50 in experiment [1] was in the range of 1000 to 5000 nM; in experiment [2], 10 to 100 nM; in the experiment with human CD4+ T cells, 100 to 1000 nM. In experiment [2], the “MTHFD1/MTHFD2 IC50 ratio” value is listed as “J (>30)”.
As for `CCOc1cc(C(=O)N2CCc3c(c(=O)oc4c(C)c(N5CCN(C)[C@@H](COC)C5)cc(C)c34)C2)c(F)cc1C(=O)NS(=O)(=O)N1CCCC1` [Example 202, (R)-2-ethoxy-5-fluoro-4-(8-(3-(methoxymethyl)-4-methylpiperazin-1-yl)-7,10-dimethyl-5-oxo-1,3,4,5-tetrahydro-2H-chromeno[3,4-c]pyridine-3-carbonyl)-N-(pyrrolidin-1-ylsulfonyl)benzamide], the results for the IC50 (in experiment [1]; in experiment [2]; in the experiment with human CD4+ T cells) were 100 to 1000 nM, 10 to 100 nM and 10 to 30 nM, respectively. Also, in experiment [2], the “MTHFD1/MTHFD2 IC50 ratio” value is given as “H (>9.0 to 30)”.
On the same counts, the results for `COC[C@H]1CN(c2cc(C)c3c4c(c(=O)oc3c2C)CN(C(=O)c2ccc(C(=O)NS(=O)(=O)N3C[C@H]5CCC[C@H]5C3)cc2)CC4)CCN1C` [Example 210, N-(((3aR,6a S)-hexahydrocyclopenta[c]pyrrol-2(1H)-yl)sulfonyl)-4-(8-((R)-3-(methoxymethyl)-4-methylpiperazin-1-yl)-7,10-dimethyl-5-oxo-1,3,4,5-tetrahydro-2H-chromeno[3,4-c]pyridine-3-carbonyl)benzamide] are 1000 to 5000 nM, 10 to 100 nM, over 5000 nM and “J (>30)”.
